{"source": "patent US20240083861A1", "about": "“HSD17B13 INHIBITORS AND USES THEREOF” (FL2022-001, Inc., priority 2020, published 2024)"}
{"target": "T1, Recombinant human HSD17B13 enzyme (Homo sapiens, UniProt Q7Z5P4)", "T1 sequence (Q7Z5P4 20-300)": "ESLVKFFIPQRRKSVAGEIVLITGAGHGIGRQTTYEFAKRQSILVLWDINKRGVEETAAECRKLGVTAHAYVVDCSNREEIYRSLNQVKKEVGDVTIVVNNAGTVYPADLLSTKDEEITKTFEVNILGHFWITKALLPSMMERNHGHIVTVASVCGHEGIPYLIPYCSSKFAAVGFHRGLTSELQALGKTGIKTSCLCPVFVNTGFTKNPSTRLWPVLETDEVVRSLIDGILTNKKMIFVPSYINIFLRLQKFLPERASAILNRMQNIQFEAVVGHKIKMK", "assay": "HSD17b13 NAD(P)H-Glo biochemical assay", "details": "50 uM estradiol, 1 mM NAD+, NAD(P)H-Glo luminescence; read-out: HSD17β13 IC50", "method_in_brief": "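Luminescent NAD(P)H-Glo read-out, taken after 1 hour at RT, measured cofactor reduction. Substrate and cofactor were estradiol at 50 uM and NAD+ at 1 mM final, reacted with the recombinant human enzyme for 3 hours at 37° C in 20 mM Tris pH7.4, 0.002% Tween-20, 0.02% BSA. Compound was pre-incubated with enzyme for 20 minutes at RT.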", "units": {"IC50": "nM"}}
{"smiles": "CN1CCN(c2cc3c(cn2)c(-c2cc(C(F)(F)F)c(F)c(O)c2F)nn3C)C2(CCC2)C1", "note": "[Compound 9.96, 2,6-Difluoro-3-(1-methyl-6-(8-methyl-5,8-diazaspiro[3.5]nonan-5-yl)-1H-pyrazolo[4,3-c]pyridin-3-yl)-5-(trifluoromethyl)phenol]", "IC50": "< 100"}
{"smiles": "Cn1nc(-c2cc(C(F)(F)F)c(F)c(O)c2F)c2cnc(N3CCOC(CO)C3)cc21", "note": "(centres unmarked) [Compound 9.97, 2,6-Difluoro-3-(6-(2-(hydroxymethyl)morpholino)-1-methyl-1H-pyrazolo[4,3-c]pyridin-3-yl)-5-(trifluoromethyl)phenol]", "IC50": "100 to 1000"}
{"smiles": "COCC1(Nc2cc3c(cn2)c(-c2cc(C(F)(F)F)c(F)c(O)c2F)nn3C)CCC1", "note": "[Compound 9.98, 2,6-Difluoro-3-(6-((1-(methoxymethyl)cyclobutyl)amino)-1-methyl-1H-pyrazolo[4,3-c]pyridin-3-yl)-5-(trifluoromethyl)phenol]", "IC50": "< 100"}
{"smiles": "Cn1nc(-c2cc(C(F)(F)F)c(F)c(O)c2F)c2cnc(N3CCCC34CCOCC4)cc21", "note": "[Compound 9.99, 2,6-Difluoro-3-(1-methyl-6-(8-oxa-1-azaspiro[4.5]decan-1-yl)-1H-pyrazolo[4,3-c]pyridin-3-yl)-5-(trifluoromethyl)phenol]", "IC50": "< 100"}
{"smiles": "Cn1nc(-c2cc(C(F)(F)F)c(F)c(O)c2F)c2cnc(N3[C@@H]4CNC[C@H]3COC4)cc21", "note": "[Compound 9.100, 3-(6-(cis-3-Oxa-7,9-diazabicyclo[3.3.1]nonan-9-yl)-1-methyl-1H-pyrazolo[4,3-c]pyridin-3-yl)-2,6-difluoro-5-(trifluoromethyl)phenol]", "IC50": "100 to 1000"}
{"smiles": "Cn1nc(-c2cc(C(F)(F)F)c(F)c(O)c2F)c2cnc(N3CCOCC3=O)cc21", "note": "[Compound 9.101, 4-(3-(2,4-Difluoro-3-hydroxy-5-(trifluoromethyl)phenyl)-1-methyl-1H-pyrazolo[4,3-c]pyridin-6-yl)morpholin-3-one]", "IC50": "100 to 1000"}
{"smiles": "CN1CCN(c2cc3c(cn2)c(-c2cc(C(F)(F)F)c(F)c(O)c2F)nn3C)C(=O)C1", "note": "[Compound 9.102, 1-(3-(2,4-Difluoro-3-hydroxy-5-(trifluoromethyl)phenyl)-1-methyl-1H-pyrazolo[4,3-c]pyridin-6-yl)-4-methylpiperazin-2-one]", "IC50": "100 to 1000"}
{"smiles": "CN(c1nc2c(cc1F)c(-c1cc(C(F)(F)F)c(F)c(O)c1F)nn2C)C1CCOCC1", "note": "[Compound 9.103, 2,6-Difluoro-3-(5-fluoro-1-methyl-6-(methyl(tetrahydro-2H-pyran-4-yl)amino)-1H-pyrazolo[3,4-b]pyridin-3-yl)-5-(trifluoromethyl)phenol]", "IC50": "< 100"}
{"smiles": "Cn1nc(-c2cc(C(F)(F)F)c(F)c(O)c2F)c2cc(F)c(N3CCN(S(C)(=O)=O)CC34CC4)nc21", "note": "[Compound 9.104, 2,6-Difluoro-3-(5-fluoro-1-methyl-6-(7-(methylsulfonyl)-4,7-diazaspiro[2.5]octan-4-yl)-1H-pyrazolo[3,4-b]pyridin-3-yl)-5-(trifluoromethyl)phenol]", "IC50": "< 100"}
{"smiles": "Cn1nc(-c2cc(C(F)(F)F)c(F)c(O)c2F)c2cc(F)c(N3CCCOCC34CC4)nc21", "note": "[Compound 9.105, 2,6-Difluoro-3-(5-fluoro-1-methyl-6-(8-oxa-4-azaspiro[2.6]nonan-4-yl)-1H-pyrazolo[3,4-b]pyridin-3-yl)-5-(trifluoromethyl)phenol]", "IC50": "< 100"}
{"smiles": "COC1CCN(c2nc3c(cc2F)c(-c2cc(C(F)(F)F)c(F)c(O)c2F)nn3C)CC1", "note": "[Compound 9.106, 2,6-Difluoro-3-(5-fluoro-6-(4-methoxypiperidin-1-yl)-1-methyl-1H-pyrazolo[3,4-b]pyridin-3-yl)-5-(trifluoromethyl)phenol]", "IC50": "< 100"}
{"smiles": "Cn1nc(-c2cc(C(F)(F)F)c(F)c(O)c2F)c2cc(F)c(N3CCOCC34CCC4)nc21", "note": "[Compound 9.107, 2,6-Difluoro-3-(5-fluoro-1-methyl-6-(8-oxa-5-azaspiro[3.5]nonan-5-yl)-1H-pyrazolo[3,4-b]pyridin-3-yl)-5-(trifluoromethyl)phenol]", "IC50": "< 100"}
{"smiles": "Cn1nc(-c2cc(C(F)(F)F)c(F)c(O)c2F)c2cc(F)c(N3CCOC4(CCC4)C3)nc21", "note": "[Compound 9.108, 2,6-Difluoro-3-(5-fluoro-1-methyl-6-(5-oxa-8-azaspiro[3.5]nonan-8-yl)-1H-pyrazolo[3,4-b]pyridin-3-yl)-5-(trifluoromethyl)phenol]", "IC50": "< 100"}
{"smiles": "Cn1nc(-c2ccc(F)c(O)c2F)c2cnc(N3CCOC4(CCC4)C3)cc21", "note": "[Compound 9.109, 2,6-Difluoro-3-(1-methyl-6-(5-oxa-8-azaspiro[3.5]nonan-8-yl)-1H-pyrazolo[4,3-c]pyridin-3-yl)phenol]", "IC50": "100 to 1000"}
{"smiles": "Cn1nc(-c2cc(C(F)(F)F)c(F)c(O)c2F)c2cnc(N3CCOCC34CCC4)nc21", "note": "[Compound 9.110, 2,6-Difluoro-3-(1-methyl-6-(8-oxa-5-azaspiro[3.5]nonan-5-yl)-1H-pyrazolo[3,4-d]pyrimidin-3-yl)-5-(trifluoromethyl)phenol]", "IC50": "< 100"}
{"smiles": "Cn1nc(-c2cc(C(F)(F)F)c(F)c(O)c2F)c2cnc(N3CCNCC34CC4)cc21", "note": "[Compound 9.111, 2,6-Difluoro-3-(1-methyl-6-(4,7-diazaspiro[2.5]octan-4-yl)-1H-pyrazolo[4,3-c]pyridin-3-yl)-5-(trifluoromethyl)phenol]", "IC50": "< 100"}
{"smiles": "CN1CCN(c2cc3c(cn2)c(-c2cc(C(F)(F)F)c(F)c(O)c2F)nn3C)C2(CC2)C1=O", "note": "[Compound 9.112, 4-(3-(2,4-Difluoro-3-hydroxy-5-(trifluoromethyl)phenyl)-1-methyl-1H-pyrazolo[4,3-c]pyridin-6-yl)-7-methyl-4,7-diazaspiro [2.5]octan-8-one]", "IC50": "< 100"}
{"smiles": "CCN1CCN(c2cc3c(cn2)c(-c2cc(C(F)(F)F)c(F)c(O)c2F)nn3C)C(=O)C1", "note": "[Compound 9.113, 1-(3-(2,4-Difluoro-3-hydroxy-5-(trifluoromethyl)phenyl)-1-methyl-1H-pyrazolo[4,3-c]pyridin-6-yl)-4-ethylpiperazin-2-one]", "IC50": "100 to 1000"}
{"smiles": "Cn1nc(-c2cc(C(F)(F)F)c(F)c(O)c2F)c2cnc(N3CC(=O)NCC34CC4)cc21", "note": "[Compound 9.114, 4-(3-(2,4-Difluoro-3-hydroxy-5-(trifluoromethyl)phenyl)-1-methyl-1H-pyrazolo[4,3-c]pyridin-6-yl)-4,7-diazaspiro[2.5]octan-6-one]", "IC50": "< 100"}
{"smiles": "Cn1nc(-c2cc(C(F)(F)F)c(F)c(O)c2F)c2cnc(N3CC4(CC4)NCC3=O)cc21", "note": "[Compound 9.115, 7-(3-(2,4-Difluoro-3-hydroxy-5-(trifluoromethyl)phenyl)-1-methyl-1H-pyrazolo[4,3-c]pyridin-6-yl)-4,7-diazaspiro[2.5]octan-6-one]", "IC50": "100 to 1000"}
{"smiles": "CN(c1cc2c(cc1F)c(-c1cc(C(F)(F)F)c(F)c(O)c1F)nn2C)C1CCOCC1", "note": "[Compound 9.116, 2,6-Difluoro-3-(5-fluoro-1-methyl-6-(methyl(tetrahydro-2H-pyran-4-yl)amino)-1H-indazol-3-yl)-5-(trifluoromethyl)phenol]", "IC50": "< 100"}
{"smiles": "Cn1nc(-c2cc(C(F)(F)F)c(F)c(O)c2F)c2cc(F)c(N3CCN(S(C)(=O)=O)CC34CC4)cc21", "note": "[Compound 9.117, 2,6-Difluoro-3-(5-fluoro-1-methyl-6-(7-(methylsulfonyl)-4,7-diazaspiro[2.5]octan-4-yl)-1H-indazol-3-yl)-5-(trifluoromethyl)phenol]", "IC50": "< 100"}
{"smiles": "Cn1nc(-c2cc(C(F)(F)F)c(F)c(O)c2F)c2c(F)cc(N3CCOCC34CC4)cc21", "note": "[Compound 9.118, 2,6-Difluoro-3-(4-fluoro-1-methyl-6-(7-oxa-4-azaspiro[2.5]octan-4-yl)-1H-indazol-3-yl)-5-(trifluoromethyl)phenol]", "IC50": "< 100"}
{"smiles": "Cn1nc(-c2cc(C(F)(F)F)c(F)c(O)c2F)c2ncc(N3CCOCC34CC4)cc21", "note": "[Compound 9.119, 2,6-Difluoro-3-(1-methyl-6-(7-oxa-4-azaspiro[2.5]octan-4-yl)-1H-pyrazolo[4,3-b]pyridin-3-yl)-5-(trifluoromethyl)phenol]", "IC50": "< 100"}
{"smiles": "CN(c1cc2c(nn1)c(-c1cc(C(F)(F)F)c(F)c(O)c1F)nn2C)C1CCOCC1", "note": "[Compound 9.120, 2,6-Difluoro-3-(1-methyl-6-(methyl(tetrahydro-2H-pyran-4-yl)amino)-1H-pyrazolo[4,3-c]pyridazin-3-yl)-5-(trifluoromethyl)phenol]", "IC50": "100 to 1000"}
{"smiles": "Cn1nc(-c2cc(C(F)(F)F)c(F)c(O)c2F)c2cc(F)c(N3CCOCC34CC4)cc21", "note": "[Compound 9.121, 2,6-Difluoro-3-(5-fluoro-1-methyl-6-(7-oxa-4-azaspiro[2.5]octan-4-yl)-1H-indazol-3-yl)-5-(trifluoromethyl)phenol]", "IC50": "< 100"}
{"smiles": "Cn1nc(-c2cc(C(F)(F)F)c(F)c(O)c2F)c2cnc(N3CCN(S(C)(=O)=O)CC34CC4)nc21", "note": "[Compound 9.122, 2,6-Difluoro-3-(1-methyl-6-(7-(methylsulfonyl)-4,7-diazaspiro[2.5]octan-4-yl)-1H-pyrazolo[3,4-d]pyrimidin-3-yl)-5-(trifluoromethyl)phenol]", "IC50": "< 100"}
{"smiles": "Cn1nc(-c2cc(C(F)(F)F)c(F)c(O)c2F)c2cnc(N(Cc3ccccc3)C3CCOCC3)cc21", "note": "[Compound 9.123, 3-(6-(Benzyl(tetrahydro-2H-pyran-4-yl)amino)-1-methyl-1H-pyrazolo[4,3-c]pyridin-3-yl)-2,6-difluoro-5-(trifluoromethyl)phenol]", "IC50": "< 100"}
{"smiles": "Cn1nc(-c2cc(C(F)(F)F)c(F)c(O)c2F)c2cnc(N3CCS(=O)(=O)CC34CCC4)cc21", "note": "[Compound 9.124, 5-(3-(2,4-Difluoro-3-hydroxy-5-(trifluoromethyl)phenyl)-1-methyl-1H-pyrazolo[4,3-c]pyridin-6-yl)-8-thia-5-azaspiro[3.5]nonane 8,8-dioxide]", "IC50": "< 100"}
